Assays:
Cytochrome P450 1A2 = target: T1, Cytochrome P450 1A2 (Homo sapiens, UniProt P05177); assay: Time-dependent inhibition of CYP1A2 in human liver microsomes at 10 uM in presence of NADPH by LC-MS/MS analysis; type: ADME
T1 sequence (P05177 whole entry): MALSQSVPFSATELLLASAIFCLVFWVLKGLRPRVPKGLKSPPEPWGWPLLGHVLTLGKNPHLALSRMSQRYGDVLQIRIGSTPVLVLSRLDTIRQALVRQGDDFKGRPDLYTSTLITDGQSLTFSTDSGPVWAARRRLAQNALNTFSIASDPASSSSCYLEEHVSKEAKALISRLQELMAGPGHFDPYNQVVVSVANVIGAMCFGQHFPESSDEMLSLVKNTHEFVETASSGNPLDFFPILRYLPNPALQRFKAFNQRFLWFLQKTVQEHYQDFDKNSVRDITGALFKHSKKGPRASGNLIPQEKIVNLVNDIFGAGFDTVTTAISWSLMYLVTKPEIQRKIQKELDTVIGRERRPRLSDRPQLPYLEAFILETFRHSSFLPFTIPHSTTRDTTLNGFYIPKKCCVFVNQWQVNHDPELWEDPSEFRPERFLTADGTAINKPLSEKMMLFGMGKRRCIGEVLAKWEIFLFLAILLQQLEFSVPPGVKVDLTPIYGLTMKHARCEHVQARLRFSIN

[1] = Half life in BALB/c mouse at 3 mg/kg, iv by LC-MS/MS analysis; type: ADME, organism-based; conditions: in vivo
[2] = Half life in Sprague-Dawley rat at 3 mg/kg, iv by LC-MS/MS analysis; type: ADME, organism-based; conditions: in vivo
[3] = AUC (0 to t) in Sprague-Dawley rat at 6 mg/kg, po by LC-MS/MS analysis; type: ADME, organism-based; parameters: dose 6 mg/kg; conditions: in vivo
COLO 205 [4] = assay: Antitumor activity against human COLO 205 cells xenografted in BALB/c mouse assessed as tumor growth inhibition at 3 mg/kg, po qd for 11 days relative to control; type: functional; conditions: COLO 205, po, time 11 day, read-out: TGI
COLO 205 [5] = assay: Antitumor activity against human COLO 205 cells xenografted in po dosed BALB/c mouse assessed as tumor growth inhibition administered once daily or every three days for 11 days; type: functional, organism-based; conditions: time 11.0 day
Cytochrome P450 3A4 = Cytochrome P450 3A4 (Homo sapiens, UniProt P08684); assay: Time-dependent inhibition of CYP3A4 in human liver microsomes at 10 uM in presence of NADPH by LC-MS/MS analysis; type: ADME
CDK4/Cyclin D3 = CDK4/Cyclin D3 (Homo sapiens, UniProt P11802); assay: Inhibition of recombinant human full-length N-terminal GST-fused CDK4 (1 to 303 residues)/GST-tagged CyclinD3 (1 to 292 residues) expressed in baculovirus expression system using ULight-elF4E-binding protein 1 peptide as substrate measured after 30 mins by LANCE assay
CYP2C19 = CYP2C19 (Homo sapiens, UniProt P33261); assay: Inhibition of CYP2C19 in human liver microsomes at 10 uM measured after 20 mins in presence of NADPH by LC-MS/MS analysis relative to control; type: ADME
[6] = Cmax in BALB/c mouse at 10 mg/kg, po by LC-MS/MS analysis; type: ADME, organism-based; parameters: route oral, dose 10 mg/kg; conditions: in vivo
[7] = target: Cyclin-dependent kinase 7/ cyclin H (Homo sapiens, UniProt P50613); assay: Inhibition of CDK7/cyclin H (unknown origin); type: protein-complex assay
[8] = AUC (0 to t) in BALB/c mouse at 3 mg/kg, iv by LC-MS/MS analysis; type: ADME, organism-based; parameters: dose 3 mg/kg; conditions: in vivo
[9] = target: Cyclin-dependent kinase 1/cyclin B1 (Homo sapiens, UniProt P06493)
Description: Inhibition of CDK1/cyclin B (unknown origin)

[10] = Oral bioavailability in BALB/c mouse at 10 mg/kg by LC-MS/MS analysis; type: ADME, organism-based; conditions: in vivo
U-87 MG = assay: Antitumor activity against human U-87 MG cells xenografted in BALB/c mouse assessed as tumor growth at 10 mg/kg, po qd for 16 days relative to control; type: functional, U-87MG ATCC; conditions: time 16 day
CYP2C9 = CYP2C9 (Homo sapiens, UniProt P11712); assay: Inhibition of CYP2C9 in human liver microsomes at 10 uM measured after 20 mins in presence of NADPH by LC-MS/MS analysis relative to control; type: ADME
COLO 205 [11] = assay: Cell cycle arrest in human COLO 205 cells assessed as accumulation at G0/G1 phase at 200 nM measured after 24 hrs by propidium iodide staining based flow cytometry relative to control; type: functional
[12] = Intrinsic clearance in human liver microsomes at 1 uM preincubated for 10 mins followed by NADPH addition and measured after 1 hr by LC-MS/MS analysis; type: ADME, Microsome; conditions: time 70 min, read-out: CLH

Sequence of CYP2C9 (P11712 whole entry): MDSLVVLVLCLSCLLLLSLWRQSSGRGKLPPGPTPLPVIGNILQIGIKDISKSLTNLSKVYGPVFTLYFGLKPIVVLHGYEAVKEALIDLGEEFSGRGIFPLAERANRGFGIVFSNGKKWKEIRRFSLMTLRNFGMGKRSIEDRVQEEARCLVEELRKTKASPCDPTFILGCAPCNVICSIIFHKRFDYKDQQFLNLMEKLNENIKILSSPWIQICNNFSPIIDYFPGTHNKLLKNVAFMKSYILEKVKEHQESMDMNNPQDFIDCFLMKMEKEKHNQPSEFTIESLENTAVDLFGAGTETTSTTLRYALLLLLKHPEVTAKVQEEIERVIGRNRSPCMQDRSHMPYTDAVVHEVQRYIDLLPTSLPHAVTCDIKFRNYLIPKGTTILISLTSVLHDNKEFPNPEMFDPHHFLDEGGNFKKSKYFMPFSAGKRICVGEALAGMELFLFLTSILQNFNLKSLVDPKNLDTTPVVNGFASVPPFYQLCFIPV
Sequence of CYP2C19 (P33261 whole entry): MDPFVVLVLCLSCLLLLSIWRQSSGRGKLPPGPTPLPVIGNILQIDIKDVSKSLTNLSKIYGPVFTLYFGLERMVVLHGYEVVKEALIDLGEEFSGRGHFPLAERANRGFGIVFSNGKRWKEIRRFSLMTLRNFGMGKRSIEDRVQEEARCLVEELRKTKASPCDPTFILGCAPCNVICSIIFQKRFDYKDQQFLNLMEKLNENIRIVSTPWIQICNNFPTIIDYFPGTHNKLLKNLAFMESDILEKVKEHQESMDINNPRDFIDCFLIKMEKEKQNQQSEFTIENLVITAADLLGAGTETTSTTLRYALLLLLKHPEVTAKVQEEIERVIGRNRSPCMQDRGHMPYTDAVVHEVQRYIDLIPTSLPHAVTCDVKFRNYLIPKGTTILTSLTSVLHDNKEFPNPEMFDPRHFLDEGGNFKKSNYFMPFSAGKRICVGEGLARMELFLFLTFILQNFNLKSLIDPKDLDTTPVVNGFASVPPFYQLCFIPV
Sequence of Cytochrome P450 3A4 (P08684 whole entry, the tested form may be a part): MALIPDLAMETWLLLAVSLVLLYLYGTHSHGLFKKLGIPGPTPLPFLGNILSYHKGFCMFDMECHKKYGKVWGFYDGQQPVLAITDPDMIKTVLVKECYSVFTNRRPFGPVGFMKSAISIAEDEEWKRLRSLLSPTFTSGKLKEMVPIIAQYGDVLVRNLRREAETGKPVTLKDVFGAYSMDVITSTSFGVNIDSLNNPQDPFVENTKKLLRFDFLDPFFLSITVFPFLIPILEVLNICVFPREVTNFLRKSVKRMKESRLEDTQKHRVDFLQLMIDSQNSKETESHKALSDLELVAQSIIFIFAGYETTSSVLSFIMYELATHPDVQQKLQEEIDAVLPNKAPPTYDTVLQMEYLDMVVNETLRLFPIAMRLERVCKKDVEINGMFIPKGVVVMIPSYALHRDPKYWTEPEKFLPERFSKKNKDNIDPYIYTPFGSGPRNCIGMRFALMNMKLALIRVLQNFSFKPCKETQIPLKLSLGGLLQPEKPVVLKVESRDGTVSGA
Sequence of Cyclin-dependent kinase 7/ cyclin H (P51946 whole entry): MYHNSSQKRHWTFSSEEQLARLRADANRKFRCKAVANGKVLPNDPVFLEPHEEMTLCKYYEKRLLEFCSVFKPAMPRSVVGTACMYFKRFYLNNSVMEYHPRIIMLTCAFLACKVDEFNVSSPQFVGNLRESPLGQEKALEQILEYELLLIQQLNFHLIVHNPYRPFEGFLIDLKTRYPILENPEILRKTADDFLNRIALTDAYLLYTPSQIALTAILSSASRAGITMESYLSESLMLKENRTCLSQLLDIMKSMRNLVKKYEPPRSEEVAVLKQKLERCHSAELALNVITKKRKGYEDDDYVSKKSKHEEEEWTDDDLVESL
Sequence of Cyclin-dependent kinase 7/ cyclin H (P50613 whole entry): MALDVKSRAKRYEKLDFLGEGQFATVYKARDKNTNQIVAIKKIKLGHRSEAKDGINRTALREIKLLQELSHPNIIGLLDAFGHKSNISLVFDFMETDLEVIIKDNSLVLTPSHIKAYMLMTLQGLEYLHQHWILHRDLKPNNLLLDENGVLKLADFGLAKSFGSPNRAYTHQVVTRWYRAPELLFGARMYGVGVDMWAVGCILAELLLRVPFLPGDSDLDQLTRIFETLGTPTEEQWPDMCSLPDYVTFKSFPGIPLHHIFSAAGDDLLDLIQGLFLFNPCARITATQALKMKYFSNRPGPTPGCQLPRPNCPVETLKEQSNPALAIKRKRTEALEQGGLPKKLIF
Sequence of CDK4/Cyclin D3 (P11802 whole entry, the tested form may be a part): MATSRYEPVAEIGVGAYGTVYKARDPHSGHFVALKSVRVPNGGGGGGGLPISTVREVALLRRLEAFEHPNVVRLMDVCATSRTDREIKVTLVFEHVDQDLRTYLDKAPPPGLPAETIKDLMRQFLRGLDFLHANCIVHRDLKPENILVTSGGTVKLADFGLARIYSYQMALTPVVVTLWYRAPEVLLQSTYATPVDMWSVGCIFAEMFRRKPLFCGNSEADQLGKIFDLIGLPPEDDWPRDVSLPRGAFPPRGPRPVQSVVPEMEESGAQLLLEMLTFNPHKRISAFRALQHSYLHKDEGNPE
Sequence of CDK4/Cyclin D3 (P30281 whole entry, further chain, the tested form may be a part): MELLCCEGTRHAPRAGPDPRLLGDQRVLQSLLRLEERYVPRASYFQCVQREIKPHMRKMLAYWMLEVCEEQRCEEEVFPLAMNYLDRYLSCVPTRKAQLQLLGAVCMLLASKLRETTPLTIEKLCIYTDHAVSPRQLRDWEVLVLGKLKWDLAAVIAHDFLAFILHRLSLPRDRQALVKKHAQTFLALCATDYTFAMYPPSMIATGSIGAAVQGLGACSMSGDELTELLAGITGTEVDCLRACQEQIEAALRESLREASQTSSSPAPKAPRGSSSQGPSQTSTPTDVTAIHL
Sequence of Cyclin-dependent kinase 1/cyclin B1 (P06493 whole entry): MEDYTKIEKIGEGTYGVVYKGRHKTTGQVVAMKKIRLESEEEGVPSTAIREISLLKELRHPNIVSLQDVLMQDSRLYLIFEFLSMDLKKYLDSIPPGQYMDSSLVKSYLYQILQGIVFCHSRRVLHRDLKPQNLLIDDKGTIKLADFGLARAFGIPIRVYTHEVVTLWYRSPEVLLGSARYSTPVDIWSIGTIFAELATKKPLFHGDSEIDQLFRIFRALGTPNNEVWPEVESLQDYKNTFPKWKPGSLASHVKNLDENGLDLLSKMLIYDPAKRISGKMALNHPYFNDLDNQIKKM
Sequence of Cyclin-dependent kinase 1/cyclin B1 (P14635 whole entry, further chain): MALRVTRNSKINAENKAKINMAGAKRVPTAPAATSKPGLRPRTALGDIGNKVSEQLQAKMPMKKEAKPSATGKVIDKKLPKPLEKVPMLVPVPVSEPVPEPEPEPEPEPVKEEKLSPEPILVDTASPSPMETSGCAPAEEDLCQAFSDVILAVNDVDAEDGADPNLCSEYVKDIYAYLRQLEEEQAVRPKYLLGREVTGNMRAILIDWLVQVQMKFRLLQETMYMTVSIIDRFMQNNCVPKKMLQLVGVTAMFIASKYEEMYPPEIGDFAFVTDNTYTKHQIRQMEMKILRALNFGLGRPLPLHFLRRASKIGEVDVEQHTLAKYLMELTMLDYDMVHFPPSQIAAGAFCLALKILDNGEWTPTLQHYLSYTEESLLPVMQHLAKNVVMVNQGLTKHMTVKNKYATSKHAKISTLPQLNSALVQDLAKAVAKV

TDI (Cytochrome P450 1A2): Not Active | half-life [1]: 6.17 h | half-life [2]: 3.25 h | AUC(0-t) [3]: 1120 ng·h/mL | TDI (Cytochrome P450 3A4): Not Active | IC50 (CDK4/Cyclin D3): 0.0008 µM | inhibition at […], 10 µM (CYP2C19): 21% | Cmax [6]: 90 ng/mL | IC50 [7]: 0.0947 µM | AUCt [8]: 472 ng·h/mL | IC50 [9]: 0.309 µM | bioavailability [10]: 20.5% | inhibition at […], 10 µM (CYP2C9): 11% | microsomal CLint at 1 µM [12]: 6 µL/min/mg
Structure (SMILES): CC(=O)c1c(C)c2cnc(Nc3ccc(N4CCNCC4)cc3)nc2n2cc(C(C)C)nc12
inhibition in vivo at 3 mg/kg (COLO 205 [4]): 63% | TGI (COLO 205 [5]): Dose-dependent effect | T/C (U-87 MG): 53% | Activity (COLO 205 [11]): 94.2%

— ChEMBL document CHEMBL4765279, “Discovery of a novel series of imidazo[1',2':1,6]pyrido[2,3-d]pyrimidin derivatives as potent cyclin-dependent kinase 4/6 inhibitors” (Eur J Med Chem, 2020)
